Here are results for 16 compounds from US7326700B2, “Cyclohexenyl phenyl carboxamides tocolytic oxytocin receptor antagonists” (Wyeth, priority 2001, dated 2008).

Where a name gives a salt, the structure may show the parent alone.

One test deals with T1, human oxytocin receptor (Homo sapiens, UniProt P30559).
T1 construct: host or cells: CHO cells, stably transfected (pcDNA3.1 vector)
T1 sequence (P30559 1-389): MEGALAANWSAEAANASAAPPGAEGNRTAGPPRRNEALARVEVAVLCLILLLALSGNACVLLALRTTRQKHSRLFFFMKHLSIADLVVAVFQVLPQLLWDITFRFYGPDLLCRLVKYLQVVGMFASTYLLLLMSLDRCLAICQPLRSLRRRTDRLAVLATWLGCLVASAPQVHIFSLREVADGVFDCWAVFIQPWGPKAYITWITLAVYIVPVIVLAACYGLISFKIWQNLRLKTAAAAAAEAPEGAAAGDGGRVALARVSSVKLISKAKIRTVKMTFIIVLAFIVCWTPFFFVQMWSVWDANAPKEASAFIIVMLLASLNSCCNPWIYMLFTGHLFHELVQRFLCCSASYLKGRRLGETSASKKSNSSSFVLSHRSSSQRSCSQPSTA
Nature of the test: Oxytocin binding in CHO cell membranes expressing human oxytocin receptors ([3H]oxytocin radioligand binding). Conditions: 100 nM. An excerpt: Chinese Hamster Ovary (CHO) cells stably transfected with the human oxytocin recptor (cf. Tanizawa et al., U.S. Pat. No. 5,466,584 (1995) to Rohto Pharmaceutical Co. Ltd., Osaka, Japan) were obtained from M. Thibonnier, Case Western Reserve University School of Medicine, Cleveland, Ohio.
CHO cells transfected with the human oxytocin receptors obtained from M. Thibonnier (pcDNA3.1 vector) are allowed to grow to confluency (approx. >90%) in T-150 flasks under sterile conditions, in a cell culture medium consisting of F-12 Nutrient Mixture (HAM) with L-glutamine (Gibco Cat. #11765-054) containing 15 mM HEPES (Gibco Cat. #15630-080), 1% antibiotic/antimycotic (add 5 mL 1 00×, Gibco Cat. #15240-062 per 500 mL F-12), 400 μg/mL of Geneticin (add 4 mL of 50 mg/mL per 500 mL F-12) and 10% Fetal Bovine Serum (Qualified, heat inactivated, Gibco Cat. #16140-063). The medium is removed by aspiration and the cells are washed with 10 mL of Hank's Balanced Salt solution (Gibco Cat. #14175-095). The salt solution is removed by aspiration and the cells trypsinized with 5 mL of trypsin-EDTA (0.05% trypsin, 0.53 mM EDTA-4Na, Gibco Cat. #25300-070) for 1 min The trypsin is removed by aspiration and the cells dislodged by tapping. Cell Culture medium (e.g. 30 mL for 1:30 split) is immediately added and mixed well to inactivate trypsin. 1 mL of detached cells is added to new culture flasks containing fresh Cell Culture medium (e.g. into 25 mL per T-150 flask), and mixed gently. The cells are incubated at 37° C. in 5% CO2. The medium is changed at 3 to 4 days interval (or as appropriate). The cells grow to confluency (approx. >75%-95%) within 7-8 days. All steps are done under sterile conditions.
The cells are washed twice gently with Hank's Balanced Salt solution (eg, use 10 mL per T-150 flask). The excess solution is removed and the cells bathed for 15-30 min. in an enzyme-free Cell Dissociation Buffer (eg, use 8 mL Hank's Based, Gibco Cat. #13150-016 per T-150 flask) until cells are loosened. The contents are transferred to centrifuge tubes (50 mL size) kept in ice bath. All subsequent steps are done at 4° C. The tubes are centrifuged at 300×g for 15 min (1380 rpm on SORVAL, Model RT6000D, using rotor for 50 mL tubes). The supernatant is discarded and the cells suspended in homogenizing buffer (10 mM Tris-HCl containing 0.25 M sucrose and 1 mM EDTA, pH 7.4) ensuring that the volume of the buffer is about ten times the volume of the cell pellet. The cells are pooled into a centrifuge tube (50 mL) and homogenized with a Polytron at setting 6 for 10 sec. The homogenate is transferred into a Potter-Elvjehm homogenizer and homogenized with 3 strokes. The homogenate is centrifuged at 1500×g for 10 min at 4° C. (3100 rpm using SORVAL, model RT6000D, using rotor for 50 mL tubes). The pellet is discarded. The supernatant is centrifuged at 100,000×g for 60 min. at 4° C. (Beckman L8-80M ultracentrifuge; spin at 37,500 rpm with rotor type 70 Ti for 50 mL tubes; 38,000 rpm with type 80 Ti for 15 mL tubes; or 35,800 rpm with rotor type 45Ti). The supernantant is discarded and the pellet suspended in 3 to 4 mL of Tris buffer (50 mM TRIS-HCl, pH 7.4). The protein content is estimated by the Bradford or Lowry method. The volume of the membrane suspension is adjusted with the membrane buffer (50 mM Tris-HCl containing 0.1% BSA and 0.1 mM PMSF) to give 3.0 mg/mL (or as appropriate) of protein. The membranes are aliquoted and stored at −70° C.
In wells of a 96-well format microtiter plate, is added 90, 110 or 130 μL (to make up a final volume of 200 μL) of assay buffer containing 50 mM of Tris-HCl (pH 7.4), […], 1 mg % aprotinin, 1 mg % leupeptin, 2 mg % 1,10-phenanthroline, 10 mg % trypsin inhibitor, and 0.1 mM PMSF. The inhibitors are added on the day of the experiment. The components are mixed at room temperature, and then kept in ice bath following adjustment of the pH to 7.4. […]
On to `Cc1cc(C(=O)N2Cc3ccc(C(=O)N4CCN(CCN(C)C)CC4)n3Cc3ccccc32)ccc1C1=CCCCC1` [Example 22, {10-[4-(1-Cyclohex-1-en-1-yl)-3-methylbenzoyl]-10,11-dihydro-5H-pyrrolo[2,1-c][1,4]benzodiazepin-3-yl}{4-[2-(dimethylamino)ethyl]-1-piperazinyl}methanone], for which the “OT % inhibition @ 100 nM” value was determined as 92%. Same read-out and setting: the same measure for `Cc1cc(C(=O)N2Cc3ccc(C(=O)NCCCn4ccnc4)n3Cc3ccccc32)ccc1C1=CCCCC1` [Example 18, 10-[4-(1-Cyclohex-1-en-1-yl)-3-methylbenzoyl]-N-[3-(1H-imidazol-1-yl)propyl]10,11-dihydro-5H-pyrrolo[2,1-c][1,4]benzodiazepine-3-carboxamide]: 41%. Turning to `Cc1cc(C(=O)N2Cc3ccc(C(=O)N4CCC[C@H]4CN4CCCC4)n3Cc3ccccc32)ccc1C1=CCCCC1` [Example 26, {10-[4-(1-Cyclohex-1-en-1-yl)-3-methylbenzoyl]-10,11-dihydro-5H-pyrrolo[2,1-c][1,4]benzodiazepin-3-yl}[(2S)-2-(1-pyrrolidinylmethyl)pyrrolidinyl]methanone], the “OT % inhibition @ 100 nM” value came to 101%. In the case of `Cc1cc(C(=O)N2Cc3ccc(C(=O)N4CCC(N5CCCC5)CC4)n3Cc3ccccc32)ccc1C1=CCCCC1` [Example 19, {10-[4-(1-Cyclohex-1-en-1-yl)-3-methylbenzoyl]-10,11-dihydro-5H-pyrrolo[2,1c][1,4]benzodiazepin-3-yl}[4-(1-pyrrolidinyl)-1-piperidinyl]methanone], the “OT % inhibition @ 100 nM” value was 82%. On the same count and under the same terms, next, `C=CCN1CCN(C(=O)c2ccc3n2Cc2ccccc2N(C(=O)c2ccc(C4=CCCCC4)c(C)c2)C3)CC1` [Example 24, (4-Allyl-1-piperazinyl){10-[4-(1-cyclohex-1-en-1-yl)-3-methylbenzoyl]-10,11-dihydro-5H-pyrrolo[2,1-c][1,4]benzodiazepin-3-yl}methanone]: 68%; `Cc1cc(C(=O)N2Cc3ccc(C(=O)N4CC[C@@H](N(C)C)C4)n3Cc3ccccc32)ccc1C1=CCCCC1` [Example 27, {10-[4-(1-Cyclohex-1-en-1-yl)-3-methylbenzoyl]-10,11-dihydro-5H-pyrrolo[2,1-c][1,4]benzodiazepin-3-yl}[(3R)-3-(dimethylamino)pyrrolidinyl]methanone]: 100%. The same measure, in the same setting: the same measure for `Cc1cc(C(=O)N2Cc3ccc(C(=O)N(C)CCCN(C)C)n3Cc3ccccc32)ccc1C1=CCCCC1` [Example 16, 10-[4-(1-Cyclohex-1-en-1-yl)-3-methylbenzoyl]-N-[3-(dimethylamino)propyl]-N-methyl-10,11-dihydro-5H-pyrrolo[2,1-c][1 ,4]benzodiazepine-3-carboxamide]: 99%; for `Cc1cc(C(=O)N2Cc3ccc(C(=O)NCCC4CCCN4C)n3Cc3ccccc32)ccc1C1=CCCCC1` (stereo not shown) [Example 21, 10-[4-(1-Cyclohex-1-en-1-yl)-3-methylbenzoyl]-N-[2-(1-methyl-2-pyrrolidinyl)ethyl]-10,11-dihydro-5H-pyrrolo[2,1-c][1,4]benzodiazepine-3-carboxamide]: 57%. On the same count and under the same terms, the same measure for `Cc1cc(C(=O)N2Cc3ccc(C(=O)N4CCN(CCN5CCOCC5)CC4)n3Cc3ccccc32)ccc1C1=CCCCC1` [Example 23, {10-[4-(1-Cyclohex-1-en-1-yl)-3-methylbenzoyl]-10,11-dihydro-5H-pyrrolo[2,1-c][1,4]benzodiazepin-3-yl}{4-[2-(4-morpholinyl)ethyl]-1-piperazinyl}methanone]: 79%; for `Cc1cc(C(=O)N2Cc3ccc(C(=O)N4CCN(C(C)C)CC4)n3Cc3ccccc32)ccc1C1=CCCCC1` [Example 25, {10-[4-(1-Cyclohex-1-en-1-yl)-3-methylbenzoyl]-1 0,11-dihydro-5H-pyrrolo[2,1-c][1,4]benzodiazepin-3-yl}(4-isopropyl-1-piperazinyl)methanone]: 71%.

Staying with this test, now noted: 100 nM, read-out: OT % inhibition @ 100 nM.
As to `CC1=C(c2ccc(C(=O)N3Cc4ccc(C(=O)N5CCN(C)CC5)n4Cc4ccccc43)cc2C)CCCC1O` (stereo not shown) [Example 10, [4-(3-Hydroxy-2-methyl-cyclohex-1-en-1-yl)-3-methyl-phenyl]-[3-(4-methyl-piperazine-1carbonyl)-10,11-dihydro-5H-pyrrolo[2,1-c][1,4]benzodiazepin-10-yl]-methanone], the inhibition – broadly, how much of the control response was suppressed – at 0.1 µM was determined as 91%. The same measure, in the same setting: next, `Cc1cc(C(=O)N2Cc3ccc(C(=O)N4CCN(CCCN(C)C)CC4)n3Cc3ccccc32)ccc1C1=CCCCC1` [Example 5, [10-(4-Cyclohex-1-en-1-yl-3-methyl-benzoyl)-10,11-dihydro-5H-pyrrolo[2,1-c][1,4]benzodiazepin-3-yl]-[4-(3-dimethylamino-propyl)-piperazin-1-yl]-methanone]: 94%; `COc1cc(C2=CCCCC2)c(Cl)cc1C(=O)N1Cc2ccc(C(=O)N(C)CCCN(C)C)n2Cc2ccccc21` [Example 2, 10-(5-Chloro-4-cyclohex-1-en-1-yl-2-methoxybenzoyl)-N-[3-(dimethylamino)propyl]-N-methyl-10,11-dihydro-5H-pyrrolo[2,1-c][1,4]benzodiazepine-3-carboxamide]: 100%.

The same test, now with this note: value in parentheses, read-out: OT (IC50).
`COc1cc(C2=CCCCC2)c(Cl)cc1C(=O)N1Cc2ccc(C(=O)N(C)CCCN(C)C)n2Cc2ccccc21` [Example 3, 10-(5-Chloro-4-cyclohex-1-en-1-yl-2-methoxybenzoyl)-N-[3-(dimethylamino)propyl]-N-methyl-10,11-dihydro-5H-pyrrolo[2,1-c][1,4]benzodiazepine-3-carboxamide citric acid salt]: the IC50 – broadly, the midpoint of a concentration-inhibition curve – came to 9.04 nM. As for `COc1cc(C2=CCCCC2)c(Cl)cc1C(=O)N1Cc2ccc(C(=O)N3CCC[C@H]3CN3CCCC3)n2Cc2ccccc21` [Example 1, 4-Chloro-5-cyclohex-1-en-1-yl-2-[(3-{[(2S)-2-(pyrrolidin-1-ylmethyl)pyrrolidin-1-yl]carbonyl}-5H-pyrrolo [2,1-c][1,4]benzodiazepin-10(11H)-yl)carbonyl]phenyl methyl ether], the IC50 came out at 1.88 nM. Regarding `Cc1cc(C(=O)N2Cc3ccc(C(=O)N4CCN(C)CC4)n3Cc3ccccc32)ccc1C1=CCCCC1` [Example 4, [10-(4-Cyclohex-1-en-1-yl-3-methyl-benzoyl)-10,11-dihydro-5H-pyrrolo[2,1-c][1,4]benzodiazepin-3-yl]-(4-methyl-piperazin-1-yl)-methanone], the IC50 turned out to be 7.47 nM.
